Paper PMC5992379 (Frontiers in Molecular Neuroscience, 2018)
“And” between values parts separate entries of the source, which are not always exact repeats. Identical values can stand only once. Like-named read-outs stand apart in the source and are kept apart here.

What was measured:
BALB/c mice [1] = settings: for effect of antagonist on the antiallodynia effect of WOBE437, 3 days treatment / effect of antagonist on the antiinflammatory (edema) effect of WOBE437, 3 days treatment / effect of antagonist on the antiallodynia effect of WOBE437, single dose: antagonist i.p. 30 min before WOBE437 10 mg/kg i.p.
Protocol: BALB/c mice were anesthetized with xylazine/ketamine (5 and 10 mg/kg, respectively) and subsequently monoarthritis was induced by intra-articular injection of complete Freund’s adjuvant (CFA, 40 μL; Sigma-Aldrich, St. Louis, MO, United states) into the right knee joint. The inflammation was allowed to develop for 14 days prior to pharmacological treatments starting at day 15 for 1 or 3 days, respectively. Mechanical sensitivity (allodynia) and knee diameter (edema) were evaluated 1 h post treatment in the ipsilateral and contralateral knees. Articular sensitivity was evaluated using a digital algometer (Bioseb, United states). […] A cut-off force of 300 g was considered to avoid damage in the tissue. The measurements were done in triplicates and the average was considered for the statistical analysis. To evaluate the degree of inflammation, knee diameter was measured in both extremities using a digital micrometer (Mitutoyo, United states). […] Indomethacin (5 mg/kg; Sigma-Aldrich, United states) was used as a reference drug (positive control). For all the compounds, dimethylsulfoxide (DMSO) was used as vehicle (20 μL, i.p.).

BALB/c male mice [2] = experiment: Hot plate test (acute pain) after oral administration; type: in vivo
Protocol: The test was performed using a clean 54–56°C hot plate (Thermo Fisher Scientific, United states) with a Plexiglas cylinder. The latency to show the first nociceptive response (paw lick or foot shake) was measured.

[3] = for WOBE437 brain levels / WOBE437 plasma levels: 20 min after gavage
Protocol: The mice were sacrificed by decapitation after gavage administration. Brain, blood, liver, kidney, and spleen were collected for the LC-MS/MS analyses. All tissues were briefly washed with ice cold PBS and immediately snap-frozen and stored at -80°C. Whole brain samples were dissected between the hemispheres. Blood samples were immediately centrifuged to obtain plasma, which was stored at -80°C.
Samples extractions and LC-MS/MS measurements we performed as previously described ([Chicca et al., 2017]). Briefly, tissues were weighted and transferred in to extraction tubes containing three steel beads and 0.1 M formic acid. Tissues were homogenized and rapidly transferred to glass tubes containing 1.5 mL of ethyl acetate:hexane (9:1) 0.1% formic acid and internal standards (ISs). Samples were centrifuged and the organic phase was recovered. After evaporation, the extracts were reconstituted in 200 μL of ACN:ddH2O (8:2). 10 μL of the solution were injected in the LC-MS/MS system using the same LC and ionization protocols as described ([Chicca et al., 2017]).

[4] = tested on: endocannabinoid levels (AEA, 2-AG); experiment: Endocannabinoid, N-acylethanolamine and WOBE437 levels by LC-MS/MS after the hot plate test; type: in vivo, BALB/c male mice
Description: The mice were sacrificed by decapitation after gavage administration. […] Whole brain samples were dissected between the hemispheres.
Samples were centrifuged and the organic phase was recovered.

[5] = for Clearance: 1 μM WOBE437, preliminary; for MAB (estimated maximal bioavailability): from liver microsome clearance
Protocol: Human or mice microsome clearance experiment were carried out as according to a previously describe protocol ([Soethoudt et al., 2017]). […] After 1, 3, 6, 9, 15, 25, 35, and 45 min, 40 μL of the preparation was transferred and quenched with 3:1 (v/v) acetonitrile containing internal standards. Samples were then cooled and centrifuged before analysis by LC-MS/MS. Log peak area ratios (test compound peak area/internal standard peak area) are plotted against incubation time using a linear fit. The calculated slope is used to determine the intrinsic clearance. Data are obtained from single experiments measured with multiple time-points.

BALB/c male mice [6] = experiment: Tetrad test; type: in vivo; settings: 50 mg/kg p.o., 1 h after gavage
Protocol: The tetrad test was performed in the following order: rectal temperature, catalepsy, locomotion and analgesia. Rectal temperature was measured before (basal) and 1 h post gavage administration by using a thermocouple probe (Physitemp Instruments Inc., United states) and results were reported as the difference (Δ) between both temperatures. The bar test was used to evaluated catalepsy by placing the mouse in an imposed position with both forelimbs resting on a bar of 4 cm high; the end point of catalepsy was considered when both front limbs were removed or remained over 120 s. Locomotor activity was determined by placing the mouse on a rotarod (Erweka, Germany) at 4 rpm, the latency to fall was measured with a cut-off time of 120 s. Each mouse was previously trained to walk over the rotarod for at least 120 s. Catalepsy and locomotion were measured in three trials. Analgesia was evaluated with the hot plate test, each mouse was placed in a 54–56°C hot plate (Thermo Fisher Scientific, United states) with a Plexiglas cylinder, the latency to first nociceptive response (paw lick or foot shake) was measured.

[7] = tested on: Cnr1, Cnr2, Nape-pld, Dagla; experiment: Real-time PCR of ECS genes after 3 days treatment in the monoarthritis model; type: in vivo, BALB/c mice; settings: 10 mg/kg i.p., somatosensory cortex, thalamus, articular tissue
Protocol: Total RNA extraction and reverse transcription were carried out with a previously described protocol ([Castro-Torres et al., 2015]). The kit LightCycler® FastStart DNA Master^PLUS SYBR Green I (Roche, United states) was used for the real-time PCR, according to manufacturer protocol, and the reaction was performed in the LightCycler 2.0 equipment (Roche, United states). The relative gene expression was calculated by using the method known as 2ˆ(-ΔΔCt) ([Livak and Schmittgen, 2001]). ΔΔCt was calculated using the following formula:
(1) ΔΔCt=(CtTE−CtHE)−(CtTC−CtHC)
Finally 2ˆ(-ΔΔCt) was calculated to obtain the fold change of gene expression. Every sample (n = 6-15, per group and region) was analyzed in duplicated and the mean value was considered for ΔΔCt calculation. Beta-actin was used as the housekeeping gene and mean of vehicle group was used as a calibrator. Sequences and size products of the primers for beta actin (Actb) cannabinoid CB1 receptor (Cnr1), cannabinoid CB2 receptor (Cnr2), diacylglycerol lipase alpha (Dagla), N-acylphosphatidylethanolamine specific phospholipase D (Nape-pld) are shown in Table 1.

BALB/c male mice [8] = tested on: BALB/c male mice; set-up: method as in Chicca et al., 2017; settings: i.p.; ref Chicca et al., 2017; cited from earlier work
BALB/c mice [9] = experiment: Open field test in monoarthritic mice; type: in vivo; settings: WOBE437 i.p.
Protocol: Potential motor changes were evaluated in an open field box (40 cm × 40 cm × 30 cm, Plexiglas). The mice were individually placed in the center and allowed to move freely for 5 min. The locomotion activity was recorded with the OpenFieldTest^© ([Reynoso-Moreno et al., 2017]) and traveled distance was evaluated automatically. After every experiment, the box was cleaned with 70% ethanol to remove odors.

[10] = 50 mg/kg p.o., 1 h after gavage

O=C(Nc1ccccc1)c1cc([N+](=O)[O-])ccc1Cl [GW9662]
effect of antagonist on the antiallodynia effect of WOBE437, 3 days treatment (BALB/c mice [1]; 3 days): fully abolished | effect of antagonist on the antiinflammatory (edema) effect of WOBE437, 3 days treatment (BALB/c mice [1]; 3 days): only partially prevented | effect of antagonist on the antiallodynia effect of WOBE437, single dose (BALB/c mice [1]; single dose): did not block

Cc1c(C(=O)NN2CCCCC2)nn(-c2ccc(Cl)cc2Cl)c1-c1ccc(Cl)cc1 [rimonabant]
effect of antagonist on the antiallodynia effect of WOBE437, 3 days treatment (BALB/c mice [1]; 3 days): fully abolished | effect of antagonist on the antiinflammatory (edema) effect of WOBE437, 3 days treatment (BALB/c mice [1]; 3 days): only partially prevented | effect of antagonist on the antiallodynia effect of WOBE437, single dose (BALB/c mice [1]; single dose): did not block | effect of antagonist pre-treatment on the antinociceptive effect of WOBE437 (BALB/c male mice [2]; rimonabant 5 mg/kg i.p. 30 min before WOBE437 50 or 100 mg/kg p.o.): completely abolished

CCCCCCC/C=C/C=C/C(=O)NCCc1ccc(OC)c(OC)c1 [WOBE437]
reduction in allodynia as compared to the contralateral knee (BALB/c mice [1]; 10 mg/kg i.p., 3 days treatment): 52% | reduction of inflammation (edema) (BALB/c mice [1]; 10 mg/kg i.p., 3 days treatment, as compared to the contralateral knee): 58% | knee diameter (BALB/c mice [1]; 10 mg/kg i.p., 3 days treatment, ipsilateral knee): 5.3 ± 0.4 mm | allodynia after single dose (BALB/c mice [1]; 10 mg/kg i.p., single dose, 1 h post treatment): significantly decrease allodynia | allodynia and edema at lower doses (BALB/c mice [1]; 2.5 and 5.0 mg/kg i.p.): did not show any significant changes | WOBE437 brain levels ([3]; 10 mg/kg p.o.): 24.7 ± 25.3 pmol/g | WOBE437 plasma levels ([3]; 10 mg/kg p.o.): 47.3 ± 32.5 pmol/mL | apparent Cmax in brain ([3]; 50 mg/kg p.o.): ~500 pmol/g and 471.7 ± 182.6 pmol/g | apparent volume of distribution (Vd) at Cmax ([3]; 50 mg/kg p.o.): 80.4 L/kg | apparent volume of distribution (Vd) at the steady state ([3]; 50 mg/kg p.o.): 609 L/kg | factor of reduction of hepatic concentration between 20 and 40 min ([3]; 50 mg/kg p.o.): 4 | highest concentration in kidney ([3]; 50 mg/kg p.o.): 2277 ± 916 pmol/g | highest concentration in spleen ([3]; 50 mg/kg p.o.): 1030 ± 339 pmol/g | time after which WOBE437 is cleared from the brain ([3]; 50 mg/kg p.o.): approximately 180 min | tmax in kidney, liver, and spleen ([3]; 50 mg/kg p.o.): ≤ 20 min | brain levels after p.o. as compared to i.p. ([3]; 50 mg/kg p.o. vs 10 mg/kg i.p.): approximately 10 times lower | highest concentration in liver ([3]; 50 mg/kg p.o., 20 min): 4720 ± 3273 pmol/g | WOBE437 brain levels ([3]; 50 mg/kg p.o.): 534.5 ± 109.9 pmol/g | WOBE437 plasma levels ([3]; 50 mg/kg p.o.): 1731.5 ± 703.4 pmol/mL | hepatic concentration at 40 min ([3]; 50 mg/kg p.o., 40 min): 1080 pmol/g | WOBE437 concentration in brain 3 h after administration ([3]; 50 mg/kg p.o., 3 h): 18 pmol/g | Brain t1/2 ([3]; 50 mg/kg p.o., Figure 1B): 62.7 min | Plasma t1/2 ([3]; 50 mg/kg p.o., Figure 1B): 19.5 min | estimated concentration in brain ([3]; 50 mg/kg p.o., equivalent of brain Cmax): 399.7 ± 154.7 nM | Cmax ([3]; read-out: apparent Cmax in plasma, 50 mg/kg p.o.): ~2000 nM and 1930 nM | 2-AG levels in plasma ([4]; 25 mg/kg p.o., 1 h): 21.4 ± 4.5 pmol/mL | 2-AG levels in plasma ([4]; 50 mg/kg p.o., 1 h): 22.6 ± 4.8 pmol/mL | 2-AG levels in somatosensory cortex ([4]; 50 mg/kg p.o., 1 h): no changes | AEA and 2-AG levels in total brain ([4]; 50 mg/kg p.o., 1 h): tendency to increase | AEA levels in somatosensory cortex ([4]; 50 mg/kg p.o., 1 h): significant increase | concentration of AEA in plasma ([4]; 50 mg/kg p.o., 1 h): 2.2 ± 0.3 pmol/mL | 2-AG concentration in total brain ([4]; 50 mg/kg p.o., 1 h, tendency, not significant): 13.9 ± 2.6 nmol/g | 2-AG levels in plasma ([4]; 100 mg/kg p.o., 1 h): 23.8 ± 5.7 pmol/mL | increase of 2-AG levels in plasma ([4]; 25, 50, and 100 mg/kg p.o., vs control): 40% | levels of WOBE437 in somatosensory cortex, total brain and plasma ([4]; BALB/c mice, 1 h after p.o.): in the same range as in male C57BL6/J mice | levels of N-acylethanolamines other than AEA (PEA, OEA, LEA) ([4]; somatosensory cortex, total brain or plasma, 1 h after p.o.): No changes | Clearance ([5]; human liver microsomes): 0.657 mL/min/kg | MAB (estimated maximal bioavailability) ([5]; humans): 4% | MAB (estimated maximal bioavailability) ([5]; mice): 17% | Clearance ([5]; mouse liver microsomes): 0.174 mL/min/kg | antinociception in tetrad test (hot plate) (BALB/c male mice [6]): significant antinociception | motor coordination (rotarod) (BALB/c male mice [6]): No statistical differences | change in body temperature (BALB/c male mice [6]; not statistically different): -0.8 ± 0.8 °C | latency of catalepsy (BALB/c male mice [6]; not statistically different): 10.5 ± 10.6 s | expression of Cnr1, Cnr2, Dagla and Nape-pld [7]: did not lead to any significant change | increase of pain threshold vs vehicle (BALB/c male mice [2]; [10]): 61.7% | pain threshold (latency to first nociceptive response) (BALB/c male mice [2]; [10]): 9.4 ± 1.9 s | pain threshold (latency to first nociceptive response) (BALB/c male mice [2]; 100 mg/kg p.o., 1 h after gavage): 11.7 ± 2.6 s | overall bioavailability compared to the i.p. administration route (BALB/c male mice [2]; from effective doses in hot plate test, 50 mg/kg p.o. vs 10 mg/kg i.p.): 20% | estimated effective dose (ED50) (BALB/c male mice [2]; p.o., hot plate): 42.5 ± 3.9 mg/kg | minimum dose necessary to significantly increase the pain threshold (BALB/c male mice [2]; p.o., hot plate): 50 mg/kg | fully effective dose in the hot plate test upon systemic administration (BALB/c male mice [8]): 10 mg/kg | spontaneous motor activity (travel distance) (BALB/c mice [9]): without significant observable changes

Oc1cc2c(cc1O)CN(C(=S)NCCc1ccc(Cl)cc1)CCC2 [capsazepine]
effect of antagonist on the antiallodynia effect of WOBE437, single dose (BALB/c mice [1]; single dose): completely prevented | tolerability of the antagonist together with 3 days WOBE437 treatment (BALB/c mice [1]; capsazepine with WOBE437 10 mg/kg i.p., 3 days): unexpected hypersensitivity

SR144528
effect of antagonist on the antiallodynia effect of WOBE437, 3 days treatment (BALB/c mice [1]; 3 days): fully abolished | effect of antagonist on the antiallodynia effect of WOBE437, single dose (BALB/c mice [1]; single dose): completely prevented
